Test results taken from US4521538A (Medosan Industrie Biochimiche Riunite S.p.A., priority 1982, dated 1985).
Counter-ions that a name gives are not always drawn. Like-named read-outs stand apart in the source and are kept apart here.

Tests used:
[1] = Mucolytic activity in vitro, consistency of human expectoration; conditions: 12 experiments
Procedure: The experiment was carried out "in vitro" according to the method of R. S. Hirsch (Bull. […] Table IV lists the percentage decrease of the expectoration consistency provoked by the compound of this invention in comparison with dithiothreitol and acetylcysteine which are known mucolytic agents.

[2] = Antiinflammatory activity, carrageenin-induced oedema test; format: in vivo, rats
Procedure: This effect was evaluated by means of an experimental model reproducing acute inflammation in rats: for this purpose the carrageenin-induced oedema test was employed following the method described by C. A. Winter (J. Pharmac. Exp. […] Wong, J. F. Gardocki and T. P. Pruss, J. Pharmac. Exp. Ther. 185 (1): 127, 1973). Table I lists the tested compounds, the concentration thereof, routes of administration and relative percentage oedema inhibitions; the data are commented upon at the end of the Tables.

[3] = Analgesic activity, phenylquinone-induced writhing test; format: in vivo
Procedure: The inhibiting effect on the abdominal contractions induced by phenyl-p-quinone was calculated by the following formula: [formula]
Table II lists the doses, routes of administration and their efficacy expressed as percentage of protection.

[4] = format: in vivo, male Wistar rats; conditions: for mean severity: scale 0 (no lesion) to 5 (perforations)
Procedure: Male Wistar rats weighing 180 g were randomized into groups of 10. Three doses of each compound were administered. One group received the vehicle alone (10 ml/kg b.w.). Each dose was given orally for four days consecutively and the rats were sacrificed on the fifth day for necropsy. The ulcerogenic effect was evaluated by the following scale:
(1) each haemorrhagic point at least 1 mm in diameter was scored as 1 lesion,
(2) haemorrhagic points less than 1 mm in diameter were scored in the following manner:
(c) 20 to 29=three lesions
(2) gastric mucosal irritation without haemorrhage: 1
(3) haemorrhagic points less than 1 mm in diameter: 2
(4) haemorrhagic points between 1 and 3 mm in diameter: 3
(5) haemorrhagic points larger than 3 mm in diameter: 4
By means of this scale it was possible to obtain the gastric damage index: [formula]

[5] = Antitussive activity (method of Y. Kase); format: in vivo, albino male Guinea-pigs
Procedure: The antitussive effect on albino male Guinea-pigs weighing 300 g was evaluated using the method described by Y. Kase (Selected Pharmacological Testing Methods, p. 363, Marcel Dekker Inc., New York, 1968).

For `O[C@H](CS)[C@H](O)CS` (racemic) [Dithiothreitol], the “% decrease of expectoration consistency” value ([1]; 0.1 M (1.5%)) was 90%.
For `COc1ccc2c(c1)c(CC(=O)O)c(C)n2C(=O)c1ccc(Cl)cc1` [Indomethacin], the Oedema % inhibition ([2]; 2.5 mg/kg i.p., 2 h) was 21.0%, the Oedema % inhibition ([2]; 2.5 mg/kg i.p., 4 h) was 20.0% and the Oedema % inhibition ([2]; 2.5 mg/kg i.p., 6 h) was 17.0%. It also gave an Oedema % inhibition ([2]; 2.5 mg/kg i.p., 24 h) of 2.5%, an Oedema % inhibition ([2]; 2.5 mg/kg per os, 2 h) of 18.6% and an Oedema % inhibition ([2]; 2.5 mg/kg per os, 4 h) of 20.7%. It also gave an Oedema % inhibition ([2]; 2.5 mg/kg per os, 6 h) of 19.2%, an Oedema % inhibition ([2]; 2.5 mg/kg per os, 24 h) of 2.6% and an Oedema % inhibition ([2]; 5 mg/kg i.p., 2 h) of 30.0%. For the same compound, the Oedema % inhibition ([2]; 5 mg/kg i.p., 4 h) was 29.0%, the Oedema % inhibition ([2]; 5 mg/kg i.p., 6 h) was 23.0% and the Oedema % inhibition ([2]; 5 mg/kg i.p., 24 h) was 3.4%. For the same compound, the Oedema % inhibition ([2]; 5 mg/kg per os, 2 h) was 26.3%, the Oedema % inhibition ([2]; 5 mg/kg per os, 4 h) was 29.1% and the Oedema % inhibition ([2]; 5 mg/kg per os, 6 h) was 28.5%. It also gave an Oedema % inhibition ([2]; 5 mg/kg per os, 24 h) of 2.7%, an Oedema % inhibition ([2]; 10 mg/kg i.p., 2 h) of 49.7% and an Oedema % inhibition ([2]; 10 mg/kg i.p., 4 h) of 46.0%. For the same compound, the Oedema % inhibition ([2]; 10 mg/kg i.p., 6 h) was 48.1%, the Oedema % inhibition ([2]; 10 mg/kg i.p., 24 h) was 8.0% and the Oedema % inhibition ([2]; 10 mg/kg per os, 2 h) was 48.2%. The Oedema % inhibition ([2]; 10 mg/kg per os, 4 h) was 49.0%, the Oedema % inhibition ([2]; 10 mg/kg per os, 6 h) was 46.0% and the Oedema % inhibition ([2]; 10 mg/kg per os, 24 h) was 7.9%.
In the case of `Cc1ccc(C(=O)c2ccc(CC(=O)O)n2C)cc1` [Tolmetin Na.2H2 O, 1-mehtyl-5-p-toluoyl-2-acetic acid sodium salt dihydrate], the “% protection” value ([3]; 5 mg/kg i.p.) is reported as 16.5%, the “% protection” value ([3]; 5 mg/kg per os) is reported as 15.0% and the “% protection” value ([3]; 10 mg/kg i.p.) is reported as 46.2%. For the same compound, the “% protection” value ([3]; 10 mg/kg per os) was 40.6%, the “% protection” value ([3]; 20 mg/kg i.p.) was 69.1% and the “% protection” value ([3]; 20 mg/kg per os) was 62.0%. The mean severity ([4]; 50 mg/kg orally, four days) was 2, the “mean No. of lesions” value ([4]; 100 mg/kg orally, four days) was 2.5 and the mean severity ([4]; 100 mg/kg orally, four days) was 3.5. For the same compound, the “mean No. of lesions” value ([4]; 200 mg/kg orally, four days) was 3, the mean severity ([4]; 200 mg/kg orally, four days) was 4 and the “mean No. of lesions” value ([4]; rat, in vivo) was 2. For the same compound, the “% inhibition, amplitude of coughs” value ([5]; 50 mg/kg i.p.) was 0%, the “% inhibition, frequency of coughs” value ([5]; 50 mg/kg i.p.) was 0% and the “% inhibition, amplitude of coughs” value ([5]; 50 mg/kg per os) was 0%. For the same compound, the “% inhibition, frequency of coughs” value ([5]; 50 mg/kg per os) was 0%, the “% inhibition, amplitude of coughs” value ([5]; 75 mg/kg i.p.) was 0% and the “% inhibition, frequency of coughs” value ([5]; 75 mg/kg i.p.) was 10%. The “% inhibition, amplitude of coughs” value ([5]; 75 mg/kg per os) was 7%, the “% inhibition, frequency of coughs” value ([5]; 75 mg/kg per os) was 0% and the “% inhibition, amplitude of coughs” value ([5]; 100 mg/kg i.p.) was 7%. For the same compound, the “% inhibition, frequency of coughs” value ([5]; 100 mg/kg i.p.) was 10%, the “% inhibition, amplitude of coughs” value ([5]; 100 mg/kg per os) was 5% and the “% inhibition, frequency of coughs” value ([5]; 100 mg/kg per os) was 5%. It also gave an Oedema % inhibition ([2]; 25 mg/kg i.p., 2 h) of 28.0%, an Oedema % inhibition ([2]; 25 mg/kg i.p., 4 h) of 29.1% and an Oedema % inhibition ([2]; 25 mg/kg i.p., 6 h) of 32.1%. For the same compound, the Oedema % inhibition ([2]; 25 mg/kg i.p., 24 h) was 8.9%, the Oedema % inhibition ([2]; 25 mg/kg per os, 2 h) was 24.6% and the Oedema % inhibition ([2]; 25 mg/kg per os, 4 h) was 26.2%. The Oedema % inhibition ([2]; 25 mg/kg per os, 6 h) was 30.1%, the Oedema % inhibition ([2]; 25 mg/kg per os, 24 h) was 6.2% and the Oedema % inhibition ([2]; 50 mg/kg i.p., 2 h) was 47.0%. It also gave an Oedema % inhibition ([2]; 50 mg/kg i.p., 4 h) of 49.1%, an Oedema % inhibition ([2]; 50 mg/kg i.p., 6 h) of 40.0% and an Oedema % inhibition ([2]; 50 mg/kg i.p., 24 h) of 7.1%. The Oedema % inhibition ([2]; 50 mg/kg per os, 2 h) was 43.1%, the Oedema % inhibition ([2]; 50 mg/kg per os, 4 h) was 46.0% and the Oedema % inhibition ([2]; 50 mg/kg per os, 6 h) was 41.3%. The Oedema % inhibition ([2]; 50 mg/kg per os, 24 h) was 9.1%, the Oedema % inhibition ([2]; 100 mg/kg i.p., 2 h) was 64.1% and the Oedema % inhibition ([2]; 100 mg/kg i.p., 4 h) was 65.8%. The Oedema % inhibition ([2]; 100 mg/kg i.p., 6 h) was 60.2%, the Oedema % inhibition ([2]; 100 mg/kg i.p., 24 h) was 11.2% and the Oedema % inhibition ([2]; 100 mg/kg per os, 2 h) was 60.8%. For the same compound, the Oedema % inhibition ([2]; 100 mg/kg per os, 4 h) was 60.0%, the Oedema % inhibition ([2]; 100 mg/kg per os, 6 h) was 64.5% and the Oedema % inhibition ([2]; 100 mg/kg per os, 24 h) was 14.6%.
With `CC(=O)N[C@@H](CS)C(=O)O` [acetylcysteine] the “% decrease of expectoration consistency” value ([1]; […] (20.0%)) was 81%.
